Assay results reported in the supplement of paper PMC10702517.
± gives the standard deviation.

Columns and labels:
[1] = chemical recovery from spiked human plasma; higher = better extraction; settings: pooled human plasma
[2] = chemical recovery into PDMS from spiked human plasma; higher = better extraction; settings: pooled human plasma, extraction method: PES with PDMS
[3] = chemical recovery by SPE of plasma after PDMS sampling; higher = better extraction; settings: pooled human plasma, extraction method: HLB SPE of plasma after PES
[4] = extraction method: SPE only (HLB 96-well), PES comparison experiment
[5] = extraction method: solvent precipitation (ACN + hexane)
[6] = extraction method: PES+SPE (3 d PDMS equilibration then HLB SPE)
[7] = extraction method: SPE only (HLB 96-well)
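Wherever chemical recovery by SPE of plasma after PDMS sampling is given: over 400 spiked chemicals quantified by LC-HRMS or GC-HRMS via internal standard calibration, recovery relative to spike mix added to unspiked plasma extract to correct matrix effects.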

SMILES	chemical recovery [1, 4] [%]	chemical recovery into PDMS ([2]; equilibration time (d): 1) [%]	chemical recovery into PDMS ([2]; equilibration time (d): 3) [%]	chemical recovery into PDMS ([2]; equilibration time (d): 6) [%]	chemical recovery by SPE of plasma ([3]; equilibration time (d): 1) [%]	chemical recovery by SPE of plasma ([3]; equilibration time (d): 3) [%]	chemical recovery by SPE of plasma ([3]; equilibration time (d): 6) [%]	chemical recovery [1, 5] [%]	chemical recovery [1, 6] [%]	chemical recovery [1, 7] [%]
CCCN(CCOc1c(Cl)cc(Cl)cc1Cl)C(=O)NC=O	43.4 ± 6.2	39.6 ± 3.2	42.2 ± 4.2	43.2 ± 2.2	3.65 ± 3.2	2.44 ± 2.1	0.703 ± 1.2	–	–	–
C#C[C@]1(OC(C)=O)CC[C@H]2[C@@H]3CCC4=CC(=NO)CC[C@@H]4[C@H]3CC[C@@]21CC (mixture of isomers) [Norgestimate]	24.5 ± 5.8	15.9 ± 6.2	9.35 ± 5.2	13.5 ± 8.6	1.42 ± 1.2	–	–	–	–	–
Fc1ccc([C@]2(Cn3cncn3)O[C@H]2c2ccccc2Cl)cc1 (racemic) [Epoxiconazole]	47.4 ± 6.8	43.7 ± 1.7	48.1 ± 4.1	46.5 ± 5.9	0.968 ± 0.044	0.628 ± 0.21	0.285 ± 0.018	73.6 ± 3	–	–
CC(=O)N1CCN(c2ccc(OC[C@H]3CO[C@](Cn4ccnc4)(c4ccc(Cl)cc4Cl)O3)cc2)CC1 (racemic) [Ketoconazole]	39.6 ± 10	0.0493 ± 0.043	0.0293 ± 0.027	0.0825 ± 0.0051	17.2 ± 0.9	12.8 ± 1.7	10.5 ± 1.8	–	7.76 ± 0.64	42.6 ± 2.9
CN1CCN(C)C1=O [1,3-Dimethyl-2-imidazolidinone]	13.6 ± 8.1	3.18 ± 2.2	2.57 ± 3	3.27 ± 3.2	4.06 ± 4.7	4.29 ± 3.7	8.78 ± 4.2	–	–	7.04 ± 5.9
Nc1cccc2ccccc12 [1-Naphthylamine]	22 ± 3	–	0.33 ± 0.13	0.338 ± 0.048	11.2 ± 0.88	12.3 ± 2.6	6.22 ± 5.4	–	4.07 ± 2.1	16.7 ± 8.8
c1ccc(-c2cccc3ccccc23)cc1 [1-Phenylnaphthalene]	17.3 ± 3	70.3 ± 20	70.6 ± 5.2	78.1 ± 11	–	2.49 ± 2.2	–	–	45.1 ± 7.6	12.2 ± 3
c1ccc2[nH]nnc2c1 [1H-Benzotriazole]	53.9 ± 5.8	4.24 ± 0.36	6.44 ± 1	7.25 ± 1.5	47.4 ± 3.6	46.6 ± 3.2	39.9 ± 2.1	62.5 ± 4.5	51.7 ± 3.9	48.2 ± 2.7
c1ccc2sc(N3CCOCC3)nc2c1 [2(4-morpholinyl)benzothiazole]	40.1 ± 5.6	27.1 ± 0.46	29.2 ± 2.2	30.7 ± 0.94	1.2 ± 0.1	1.41 ± 0.23	0.805 ± 0.046	67.9 ± 3.3	41.7 ± 6.4	39.6 ± 2.1
CC1(C)CC(=O)CC(C)(C)N1 [2,2,6,6-Tetramethyl-4 piperidone]	–	0.707 ± 0.49	1.17 ± 0.15	0.677 ± 0.17	2.44 ± 4	–	1.13 ± 0.92	–	–	–
O=C(O)c1ccc(Cl)cc1Cl [2,4-Dichlorobenzoic acid]	57 ± 6.3	0.268 ± 0.04	0.296 ± 0.12	0.344 ± 0.065	47.5 ± 9.1	46.9 ± 8.3	47 ± 2.5	67 ± 4.5	–	47.3 ± 5.1
O=Cc1ccccc1Nc1ccccc1Cl [2-(2-(Chlorophenyl)amino)benzaldehyde]	23.9 ± 4.7	36.6 ± 1.5	40.9 ± 4	43.5 ± 3.3	0.712 ± 0.79	0.276 ± 0.48	–	–	–	–
Nc1ccc2c(n1)[nH]c1ccccc12 [2-Amino-9H-pyrido[2,3-b]indole (AalphaC)]	45.3 ± 7.1	3 ± 0.11	3.49 ± 1.2	5.65 ± 2.5	19.66 ± 0.18	14.4 ± 1.5	9.97 ± 0.52	70.8 ± 5.4	17 ± 2.6	28.5 ± 2.1
Nc1ccccc1Br [2-Bromoaniline]	–	6.56 ± 0.99	9.84 ± 3	5.91 ± 1.3	0.45 ± 0.78	1.14 ± 0.62	0.431 ± 0.75	–	–	–
Clc1ccc2ccccc2c1 [2-Chloronaphthalene]	0.564 ± 0.39	10.2 ± 1.7	–	–	3.42 ± 3	–	–	–	–	0.106 ± 0.18
O=c1[nH]c2ccccc2s1 [2-Hydroxybenzothiazole]	58.8 ± 4.3	9.18 ± 0.11	11.1 ± 0.48	8.95 ± 1.5	36.2 ± 6	37.7 ± 2.4	30.3 ± 2.5	71.6 ± 5.8	63.5 ± 7	49.6 ± 2.7
NC(=O)N1c2ccccc2C=Cc2cc(O)ccc21 [2-Hydroxycarbamazepine]	51.6 ± 4.5	0.215 ± 0.2	0.668 ± 0.2	0.788 ± 0.13	57.7 ± 11	55.6 ± 6.7	51.7 ± 11	68.2 ± 1.6	48.1 ± 3.7	44.7 ± 3.9
O=c1ccc2ccccc2[nH]1 [2-Hydroxyquinoline]	52.9 ± 8.4	10.9 ± 0.65	15.6 ± 2	17.1 ± 2.4	36.8 ± 5.3	30.9 ± 3.2	24 ± 2.1	78.2 ± 3.6	57.1 ± 5.5	43 ± 3.2
Cc1nc2ccccc2s1 [2-Methylbenzothiazole]	0.912 ± 0.53	8.73 ± 6	–	5.9 ± 0.22	0.0827 ± 0.14	0.253 ± 0.11	0.0669 ± 0.12	–	–	0.149 ± 0.18
